According to patent US8962627B2, “Oxime derivatives and their use as allosteric modulators of metabotropic glutamate receptors” (Prestwick Chemical, Inc., priority 2009, dated 2015):

What was measured:
[1] = target: T1, human mGluR4 transiently over-expressed in HEK-293 cells (Homo sapiens, UniProt Q14833); experiment: Human mGluR4 positive allosteric modulator evaluation using Ca++ functional assay; type: cell-based; conditions: for EC50: HEK-293 cells co-transfected with hmGluR4 and chimeric G protein, EC10 glutamate, intracellular calcium (Fluo4AM), read-out: mean EC50 of agonist/positive allosteric modulator activity on mGluR4
T1 construct: expressed in transfected cells; host or cells: HEK-293 cells, transient co-transfection by electroporation
T1 sequence (Q14833 33-912): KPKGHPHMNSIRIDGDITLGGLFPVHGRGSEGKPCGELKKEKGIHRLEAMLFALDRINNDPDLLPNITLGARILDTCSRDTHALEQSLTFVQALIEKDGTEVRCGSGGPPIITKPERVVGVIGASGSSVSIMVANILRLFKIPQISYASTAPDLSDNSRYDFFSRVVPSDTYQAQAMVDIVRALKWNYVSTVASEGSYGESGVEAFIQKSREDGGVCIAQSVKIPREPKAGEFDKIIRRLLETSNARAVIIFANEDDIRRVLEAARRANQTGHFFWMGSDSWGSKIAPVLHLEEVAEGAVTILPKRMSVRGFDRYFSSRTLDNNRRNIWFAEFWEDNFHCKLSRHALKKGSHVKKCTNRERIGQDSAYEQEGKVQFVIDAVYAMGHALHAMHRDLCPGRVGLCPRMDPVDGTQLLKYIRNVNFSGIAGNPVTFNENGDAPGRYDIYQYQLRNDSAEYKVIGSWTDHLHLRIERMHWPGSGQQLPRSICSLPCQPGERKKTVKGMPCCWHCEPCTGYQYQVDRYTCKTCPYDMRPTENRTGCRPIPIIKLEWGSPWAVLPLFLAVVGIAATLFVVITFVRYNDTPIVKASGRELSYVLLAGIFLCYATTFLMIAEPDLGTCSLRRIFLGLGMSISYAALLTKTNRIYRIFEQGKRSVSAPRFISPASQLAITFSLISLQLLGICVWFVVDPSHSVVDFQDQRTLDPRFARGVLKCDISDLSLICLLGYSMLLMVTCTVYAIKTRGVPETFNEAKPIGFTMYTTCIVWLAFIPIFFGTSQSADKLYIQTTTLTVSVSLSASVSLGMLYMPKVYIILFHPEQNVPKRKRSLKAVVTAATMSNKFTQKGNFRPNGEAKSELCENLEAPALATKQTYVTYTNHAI
Method: Human mGluR4 Positive Allosteric Modulator Evaluation Using Ca^++ Functional Assay
Compounds of the present invention were tested successively for their agonist and positive allosteric modulator activities on human mGluR4 transiently over-expressed in HEK-293 cells. They exert agonist activity if, by themselves in absence of the endogenous glutamate, they are able to activate mGluR4; and they exert positive allosteric modulator activity if they increase the action of the endogenous glutamate.
Cell Culture and Transfection
HEK-293 cells were maintained in Modified Eagle's Medium supplemented with 10% Foetal Calf Serum, 1% Penicillin/Streptomycin and 1% non essential amino acids at 37° C./5% CO2.
Cells were co-transfected by electroporation with two DNA plasmids encoding hmGluR4 and a chimeric G protein allowing redirection of the activation signal to intracellular calcium pathway. Cells were plated after transfection onto polyornithine coated, clear bottom, black-walled, 96-well plates and cultured for 24 h.
Calcium Assay EC50 Determination
Receptor activity was detected by changes in intracellular calcium measured using the fluorescent Ca^2+ sensitive dye, Fluo4AM (Molecular Probes).
The day of the assay, medium was aspirated and replaced during 3 hours by medium without serum supplemented with 1% Glutamax, 1% Penicillin/Streptomycin and 1% non essential amino acids. Then, cells were washed with freshly prepared buffer B (HBSS 1×(PAA), Hepes 20 mM, MgSO4-7H2O 1 mM, Na2CO3 3.3 mM, CaCl2-2H2O 1.3 mM, 0.5% BSA, Probenecid 2.5 mM) and loaded at 37° C. in 5% CO2 for 1.5 hours with buffer B containing 1 μM Fluo4AM 0.1 mg/mL Pluronic Acid, 7 μg/mL Glutamate Pyruvate Transaminase and 2 mM sodium pyruvate. Afterwards cells were washed twice with buffer B and 50 μL of this buffer were added to each well. Addition of compounds and intracellular Ca^2+ measurements (excitation 485 nm, emission 525 nm) were performed by the fluorescence microplate reader FlexStation (Molecular Devices).
Agonist and positive allosteric modulator activities of compounds were consecutively evaluated on the same cells plate. Agonist activity was first tested during 60 s with the addition of compound alone on the cells. Then, the cells were stimulated by an EC10 glutamate concentration and fluorescence recorded for additional 60 s. EC10 glutamate concentration is the concentration giving 10% of the maximal glutamate response. Agonist and/or positive allosteric modulator activity(ies) were evaluated in comparison to basal signal evoked by EC10 glutamate alone.
For EC50 determination, a dose-response test was performed using 6 to 9 concentrations of each compound of the invention. Dose-response curves were fitted using the sigmoidal dose-response (variable slope) analysis in GraphPad Prism program (Graph Pad Inc) and EC50 of agonist/positive allosteric modulator activity was calculated. Dose-response experiments were all performed in duplicate, two times independently.

ON=c1cc(-c2cc3ccccc3cn2)oc2cc(Br)ccc12 (mixture of isomers) [Example 2, 7-bromo-2-isoquinolin-3-yl-chromen-4-one oxime]
melting point: 279 to 283 °C
EC50 [1]: < 5 µM

ON=c1cc(-c2cc3ccccc3cn2)oc2ccc(Br)cc12 (mixture of isomers) [Example 4, 6-bromo-2-isoquinolin-3-yl-chromen-4-one oxime]
melting point: 266 to 269 °C
EC50 [1]: < 1 µM

Cc1ccc2oc(-c3cc4ccccc4cn3)cc(=NO)c2c1 (mixture of isomers) [Example 5, 2-isoquinolin-3-yl-6-methyl-chromen-4-one oxime]
melting point: 260 to 264 °C
EC50 [1]: < 1 µM

ON=c1cc(-c2cc3ccccc3cn2)oc2ccc(F)cc12 (mixture of isomers) [Example 6, 6-fluoro-2-isoquinolin-3-yl-chromen-4-one oxime]
melting point: 278 to 280 °C
EC50 [1]: < 5 µM

ON=c1cc(-c2cc3ccccc3cn2)oc2ccc(OC(F)(F)F)cc12 (mixture of isomers) [Example 10, 2-isoquinolin-3-yl-6-trifluoromethoxy-chromen-4-one oxime]
melting point: 250 to 254 °C
EC50 [1]: < 5 µM

ON=c1cc(-c2cc3ccccc3cn2)oc2ccc(C(F)(F)F)cc12 (mixture of isomers) [Example 11, 2-isoquinolin-3-yl-6-trifluoromethyl-chromen-4-one oxime]
melting point: 245 to 247 °C
EC50 [1]: < 5 µM

Cc1ccc2cnc(-c3cc(=NO)c4ccccc4o3)cc2c1 (mixture of isomers) [Example 15, 2-(6-methyl-isoquinolin-3-yl)-chromen-4-one oxime]
melting point: 245 to 247 °C
EC50 [1]: < 5 µM

ON=c1cc(-c2cc3ccccc3cn2)oc2cc(/C=C/c3ccccc3)ccc12 (mixture of isomers) [Example 21, 2-isoquinolin-3-yl-7-((E)-styryl)-chromen-4-one oxime]
melting point: 273 to 276 °C
EC50 [1]: < 5 µM

ON=c1cc(-c2cc3ccccc3cn2)oc2cc(C#Cc3ccncc3)ccc12 (mixture of isomers) [Example 26, 2-isoquinolin-3-yl-7-(pyridin-4-yl)ethynyl-chromen-4-one oxime]
melting point: 265 to 270 °C
EC50 [1]: < 5 µM

COc1cccc(C#Cc2ccc3c(=NO)cc(-c4cc5ccccc5cn4)oc3c2)c1 (mixture of isomers) [Example 28, 2-isoquinolin-3-yl-7-(3-methoxyphenyl)ethynyl-chromen-4-one oxime]
melting point: 248 to 251 °C
EC50 [1]: < 1 µM

ON=c1cc(-c2cc3ccccc3cn2)oc2cc(C#Cc3cccc(O)c3)ccc12 (mixture of isomers) [Example 30, 7-(3-hydroxyphenyl)ethynyl-2-isoquinolin-3-yl-chromen-4-one oxime]
melting point: 255 to 259 °C
EC50 [1]: < 5 µM

ON=c1cc(-c2cc3ccccc3cn2)oc2ccc(O)cc12 (mixture of isomers) [Example 41, 6-hydroxy-2-isoquinolin-3-yl-chromen-4-one oxime]
melting point: 255 to 260 °C
EC50 [1]: < 5 µM

COc1ccc2oc(-c3cc4ccccc4cn3)cc(=NO)c2c1 (mixture of isomers) [Example 42, 2-isoquinolin-3-yl-6-methoxy-chromen-4-one oxime]
melting point: 250 to 255 °C
EC50 [1]: < 5 µM

COCCOc1ccc2oc(-c3cc4ccccc4cn3)cc(=NO)c2c1 (mixture of isomers) [Example 43, 2-isoquinolin-3-yl-6-(2-methoxy-ethoxy)-chromen-4-one oxime]
melting point: 198 to 204 °C
EC50 [1]: < 1 µM

CN(C)CCOc1ccc2oc(-c3cc4ccccc4cn3)cc(=NO)c2c1 (mixture of isomers) [Example 44, 6-(2-dimethylamino-ethoxy)-2-isoquinolin-3-yl-chromen-4-one oxime]
melting point: 203 to 205 °C
EC50 [1]: < 5 µM

OCCC#Cc1ccc2c(=NO)cc(-c3cc4ccccc4cn3)oc2c1 (mixture of isomers) [Example 52, 7-(4-Hydroxy-but-1-ynyl)-2-isoquinolin-3-yl-chromen-4-one oxime]
melting point: 238 to 240 °C
EC50 [1]: < 5 µM

COCCOc1cccc(C#Cc2ccc3c(=NO)cc(-c4cc5ccccc5cn4)oc3c2)c1 (mixture of isomers) [Example 53, 2-Isoquinolin-3-yl-7-[3-(2-methoxy-ethoxy)-phenylethynyl]-chromen-4-one oxime]
melting point: 155 to 160 °C
EC50 [1]: < 1 µM

COCCOCC#Cc1ccc2c(=NO)cc(-c3cc4ccccc4cn3)oc2c1 (mixture of isomers) [Example 54, 2-Isoquinolin-3-yl-7-[3-(2-methoxy-ethoxy)-prop-1-ynyl]-chromen-4-one oxime]
melting point: 158 to 160 °C
EC50 [1]: < 5 µM

C=CC#Cc1ccc2c(=NO)cc(-c3cc4ccccc4cn3)oc2c1 (mixture of isomers) [Example 55, 7-but-3-en-1-ynyl-2-Isoquinolin-3-yl-chromen-4-one oxime]
melting point: > 210 °C (dec.)
EC50 [1]: < 5 µM

COc1ccc2c(=NO)cc(-c3cc4ccccc4cn3)oc2c1 (mixture of isomers) [Example 56, 2-isoquinolin-3-yl-7-methoxy-chromen-4-one oxime]
melting point: 246 to 248 °C
EC50 [1]: < 5 µM

COCCOc1ccc2c(=NO)cc(-c3cc4ccccc4cn3)oc2c1 (mixture of isomers) [Example 57, 2-isoquinolin-3-yl-7-(2-methoxy-ethoxy)-chromes-4-one oxime]
melting point: 223 to 225 °C
EC50 [1]: < 5 µM

ON=c1cc(-c2cc3ccsc3cn2)oc2ccccc12 (mixture of isomers) [Example 69, 2-Thieno[2,3-c]pyridin-5-yl-chromen-4-one oxime]
melting point: 243 to 245 °C
EC50 [1]: < 1 µM

COCCCc1ccc2oc(-c3cc4cccn4cn3)cc(=NO)c2c1 (mixture of isomers) [Example 83, 6-(3-Methoxy-propyl)-2-pyrrolo[1,2-c]pyrimidin-3-yl-chromen-4-one oxime]
melting point: 172 to 173 °C
EC50 [1]: < 1 µM

ON=c1cc(-c2cc3ccccc3cn2)oc2cc(C#Cc3ccccn3)ccc12 [Example 24, 2-isoquinolin-3-yl-7-(pyridin-2-yl-ethynyl)-chromen-4-one oxime]
melting point: 248 to 251 °C
EC50 [1]: < 5 µM

C=Cc1ccc2oc(-c3cc4ccccc4cn3)cc(=NO)c2c1 [Example 36, 2-isoquinolin-3-yl-6-(vinyl)-chromen-4-one oxime]
melting point: 198 to 200 °C
EC50 [1]: < 5 µM

CCc1ccc2oc(-c3cc4ccccc4cn3)cc(=NO)c2c1 [Example 37, 6-ethyl-2-isoquinolin-3-yl-chromen-4-one oxime]
melting point: 210 to 212 °C
EC50 [1]: < 1 µM

CN(C)c1ccc2oc(-c3cc4ccccc4cn3)cc(=NO)c2c1 [Example 39, 6-dimethylamino-2-isoquinolin-3-yl-chromen-4-one oxime]
melting point: 223 to 225 °C
EC50 [1]: < 5 µM

N#Cc1ccc2c(=NO)cc(-c3cc4ccccc4cn3)oc2c1 [Example 58, 7-cyano-2-isoquinolin-3-yl-chromen-4-one oxime]
melting point: 279 to 281 °C
EC50 [1]: < 5 µM

ON=c1cc(-c2cc3cc(Br)cn3cn2)oc2ccccc12 [Example 65, 2-(6-bromo-Pyrrolo[1,2-c]pyrimidin-3-yl)-chromen-4-one oxime]
melting point: 244 to 245 °C
EC50 [1]: < 5 µM

ON=c1cc(-c2cc3sccc3cn2)oc2ccccc12 [Example 70, 2-Thieno[3,2-c]pyridin-6-yl-chromen-4-one oxime]
melting point: 272 to 275 °C
EC50 [1]: < 1 µM

ON=c1cc(-c2ccc3ccccc3c2)oc2ccccc12 [Example 74, 2-Naphthalen-2-yl-chromen-4-one oxime]
melting point: 224 to 226 °C
PAM activity on mGluR4 ([1]; up to 100 μM): no PAM activity

Cn1ccc2cc(-c3cc(=NO)c4ccccc4o3)ncc21 [Example 77, 2-(1-Methyl-1H-pyrrolo[2,3-c]pyridin-5-yl)-chromen-4-one oxime]
melting point: 270 to 275 °C (dec.)
EC50 [1]: < 5 µM
